Legend:
Type in all cases: in vivo
[1] = test system: upland rice (Oryza sp., var.Tebonnet, RICE); assay: Post-emerge greenhouse test, crop damage rating; conditions: 14 days after application
Procedure, shortened: (§1)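 Compounds in acetone with 0.25% v/v non-ionic surfactant were track-sprayed at 187 l/ha over plants at the 2-3 leaf stage, at 63 to 1000 g ai/ha. Pots were bottom-watered. Injury was scored visually 14 days later on a 0-100 scale, where 0 is no damage and 100 is complete plant death.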

[2] = test system: field corn (Zea mays L., var. Dekalb 535, CORN); assay: Post-emerge greenhouse test, crop damage rating; conditions: 14 days after application
Procedure, shortened: as §1

[3] = test system: soybean (Glycine max L., var. Pella 86, SOY); assay: Post-emerge greenhouse test, crop damage rating; conditions: 14 days after application
Procedure, shortened: as §1

[4] = test system: common ragweed (Ambrosia artemisiifolia L., AMBEL); assay: Post-emerge greenhouse herbicide test, phytotoxicity rating; conditions: 14 days after application
Procedure, shortened: as §1

[5] = test system: redroot pigweed (Amaranthus retroflexus, AMARE); assay: as above; conditions: 14 days after application
Procedure, shortened: as §1

[6] = test system: ivyleaf morningglory (Ipomoea hederacea, IPOHE); assay: as above; conditions: 14 days after application
Procedure, shortened: as §1

[7] = test system: Johnsongrass (Sorghum halepense, SORHA); assay: as above; conditions: 14 days after application
Procedure, shortened: as §1

[8] = test system: sicklepod (Cassia obtusifolia, CASOB); assay: as above; conditions: 14 days after application
Procedure, shortened: as §1

[9] = test system: large crabgrass (Digitaria sanguinalis, DIGSA); assay: as above; conditions: 14 days after application
Procedure, shortened: as §1

[10] = test system: velvetleaf (Abutilon theophrasti, ABUTH); assay: as above; conditions: 14 days after application
Procedure, shortened: as §1

[11] = test system: barnyardgrass (Echinochloa crusgalli, ECHCG); assay: as above; conditions: 14 days after application
Procedure, shortened: as §1

[12] = test system: lambsquarters (Chenopodium album, CHEAL); assay: as above; conditions: 14 days after application
Procedure, shortened: as §1

[13] = test system: green foxtail (Setaria viridis, SETVI); assay: as above; conditions: 14 days after application
Procedure, shortened: as §1

[14] = test system: upland rice (Oryza sp., var.Tebonnet, RICE); assay: Pre-emerge greenhouse test, crop damage rating; conditions: 14 days after application, rating scale 0-100
Procedure, shortened: (§2)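 Seeds sown in sandy loam mix one day before track-sprayer application of compounds in acetone at 125–1000 g ai/ha (187 l/ha), then surface-watered to incorporate and bottom-watered. Visual rating 14 days after application on a 0–100 scale (0 = no damage, 100 = all plants dead).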

[15] = test system: field corn (Zea mays L., var. Dekalb 535, CORN); assay: Pre-emerge greenhouse test, crop damage rating; conditions: 14 days after application, rating scale 0-100
Procedure, shortened: as §2

[16] = test system: redroot pigweed (Amaranthus retroflexus, AMARE); assay: Pre-emerge greenhouse herbicide test, phytotoxicity rating; conditions: 14 days after application, rating scale 0-100
Procedure, shortened: as §2

[17] = test system: ivyleaf morningglory (Ipomoea hederacea, IPOHE); assay: as above; conditions: 14 days after application, rating scale 0-100
Procedure, shortened: as §2

[18] = test system: Johnsongrass (Sorghum halepense, SORHA); assay: as above; conditions: 14 days after application, rating scale 0-100
Procedure, shortened: as §2

[19] = test system: sicklepod (Cassia obtusifolia, CASOB); assay: as above; conditions: 14 days after application, rating scale 0-100
Procedure, shortened: as §2

[20] = test system: large crabgrass (Digitaria sanguinalis, DIGSA); assay: as above; conditions: 14 days after application, rating scale 0-100
Procedure, shortened: as §2

[21] = test system: velvetleaf (Abutilon theophrasti, ABUTH); assay: as above; conditions: 14 days after application, rating scale 0-100
Procedure, shortened: as §2

[22] = test system: barnyardgrass (Echinochloa crusgalli, ECHCG); assay: as above; conditions: 14 days after application, rating scale 0-100
Procedure, shortened: as §2

[23] = test system: common ragweed (Ambrosia artemisiifolia L., AMBEL); assay: as above; conditions: 14 days after application, rating scale 0-100
Procedure, shortened: as §2

[24] = test system: lambsquarters (Chenopodium album, CHEAL); assay: as above; conditions: 14 days after application, rating scale 0-100
Procedure, shortened: as §2

[25] = test system: green foxtail (Setaria viridis, SETVI); assay: as above; conditions: 14 days after application, rating scale 0-100
Procedure, shortened: as §2

[26] = test system: soybean (Glycine max L., var. Pella 86, SOY); assay: Pre-emerge greenhouse test, crop damage rating; conditions: 14 days after application, rating scale 0-100
Procedure, shortened: as §2

Compound: CN1CC(=O)N(c2cc(Oc3ncccn3)c(Cl)cc2F)C1=O [Compound 8-3]
- RICE crop damage rating (0-100) ([1]; 63 g al/ha): 0
- RICE crop damage rating (0-100) ([1]; 500 g al/ha): 0
- CORN crop damage rating (0-100) ([2]; 63 g al/ha): 0
- CORN crop damage rating (0-100) ([2]; 500 g al/ha): 0
- SOY crop damage rating (0-100) ([3]; 63 g al/ha): 10
- SOY crop damage rating (0-100) ([3]; 500 g al/ha): 50
- AMBEL phytotoxicity rating (0-100) ([4]; 63 g al/ha): 20
- AMBEL phytotoxicity rating (0-100) ([4]; 500 g al/ha): 60
- AMARE phytotoxicity rating (0-100) ([5]; 63 g al/ha): 20
- AMARE phytotoxicity rating (0-100) ([5]; 500 g al/ha): 75
- IPOHE phytotoxicity rating (0-100) ([6]; 63 g al/ha): 60
- IPOHE phytotoxicity rating (0-100) ([6]; 500 g al/ha): 90
- SORHA phytotoxicity rating (0-100) ([7]; 63 g al/ha): 0
- SORHA phytotoxicity rating (0-100) ([7]; 500 g al/ha): 0
- CASOB phytotoxicity rating (0-100) ([8]; 63 g al/ha): 0
- CASOB phytotoxicity rating (0-100) ([8]; 500 g al/ha): 0
- DIGSA phytotoxicity rating (0-100) ([9]; 63 g al/ha): 0
- DIGSA phytotoxicity rating (0-100) ([9]; 500 g al/ha): 0
- ABUTH phytotoxicity rating (0-100) ([10]; 63 g al/ha): 10
- ABUTH phytotoxicity rating (0-100) ([10]; 500 g al/ha): 75
- ECHCG phytotoxicity rating (0-100) ([11]; 63 g al/ha): 0
- ECHCG phytotoxicity rating (0-100) ([11]; 500 g al/ha): 0
- CHEAL phytotoxicity rating (0-100) ([12]; 63 g al/ha): 50
- CHEAL phytotoxicity rating (0-100) ([12]; 500 g al/ha): 85
- SETVI phytotoxicity rating (0-100) ([13]; 63 g al/ha): 0
- SETVI phytotoxicity rating (0-100) ([13]; 500 g al/ha): 0
- crop damage rating RICE ([14]; 125 g ai/ha): 0
- crop damage rating RICE ([14]; 500 g ai/ha): 30
- crop damage rating CORN ([15]; 125 g ai/ha): 0
- crop damage rating CORN ([15]; 500 g ai/ha): 5
- phytotoxicity rating AMARE ([16]; 125 g ai/ha): 10
- phytotoxicity rating AMARE ([16]; 500 g ai/ha): 100
- phytotoxicity rating IPOHE ([17]; 125 g ai/ha): 10
- phytotoxicity rating IPOHE ([17]; 500 g ai/ha): 60
- phytotoxicity rating SORHA ([18]; 125 g ai/ha): 0
- phytotoxicity rating SORHA ([18]; 500 g ai/ha): 40
- phytotoxicity rating CASOB ([19]; 125 g ai/ha): 0
- phytotoxicity rating CASOB ([19]; 500 g ai/ha): 0
- phytotoxicity rating DIGSA ([20]; 125 g ai/ha): 0
- phytotoxicity rating DIGSA ([20]; 500 g ai/ha): 90
- phytotoxicity rating ABUTH ([21]; 125 g ai/ha): 20
- phytotoxicity rating ABUTH ([21]; 500 g ai/ha): 70
- phytotoxicity rating ECHCG ([22]; 125 g ai/ha): 0
- phytotoxicity rating ECHCG ([22]; 500 g ai/ha): 10
- phytotoxicity rating AMBEL ([23]; 125 g ai/ha): 20
- phytotoxicity rating AMBEL ([23]; 500 g ai/ha): 60
- phytotoxicity rating CHEAL ([24]; 125 g ai/ha): 80
- phytotoxicity rating CHEAL ([24]; 500 g ai/ha): 100
- phytotoxicity rating SETVI ([25]; 125 g ai/ha): 0
- phytotoxicity rating SETVI ([25]; 500 g ai/ha): 70
- crop damage rating SOY ([26]; 125 g ai/ha): 0
- crop damage rating SOY ([26]; 500 g ai/ha): 10

Compound: O=C1C2CCCCN2C(=O)N1c1cc(Oc2ncccc2C(F)(F)F)c(Cl)cc1F (stereo not drawn) [Compound 8-4]
- RICE crop damage rating (0-100) ([1]; 63 g al/ha): 0
- RICE crop damage rating (0-100) ([1]; 500 g al/ha): 0
- CORN crop damage rating (0-100) ([2]; 63 g al/ha): 5
- CORN crop damage rating (0-100) ([2]; 500 g al/ha): 10
- SOY crop damage rating (0-100) ([3]; 63 g al/ha): 20
- SOY crop damage rating (0-100) ([3]; 500 g al/ha): 30
- AMBEL phytotoxicity rating (0-100) ([4]; 63 g al/ha): 0
- AMBEL phytotoxicity rating (0-100) ([4]; 500 g al/ha): 0
- AMARE phytotoxicity rating (0-100) ([5]; 63 g al/ha): 60
- AMARE phytotoxicity rating (0-100) ([5]; 500 g al/ha): 100
- IPOHE phytotoxicity rating (0-100) ([6]; 63 g al/ha): 50
- IPOHE phytotoxicity rating (0-100) ([6]; 500 g al/ha): 60
- SORHA phytotoxicity rating (0-100) ([7]; 500 g al/ha): 0
- CASOB phytotoxicity rating (0-100) ([8]; 63 g al/ha): 20
- CASOB phytotoxicity rating (0-100) ([8]; 500 g al/ha): 40
- DIGSA phytotoxicity rating (0-100) ([9]; 63 g al/ha): 0
- DIGSA phytotoxicity rating (0-100) ([9]; 500 g al/ha): 0
- ABUTH phytotoxicity rating (0-100) ([10]; 63 g al/ha): 70
- ABUTH phytotoxicity rating (0-100) ([10]; 500 g al/ha): 85
- ECHCG phytotoxicity rating (0-100) ([11]; 63 g al/ha): 0
- ECHCG phytotoxicity rating (0-100) ([11]; 500 g al/ha): 0
- CHEAL phytotoxicity rating (0-100) ([12]; 63 g al/ha): 70
- CHEAL phytotoxicity rating (0-100) ([12]; 500 g al/ha): 75
- SETVI phytotoxicity rating (0-100) ([13]; 63 g al/ha): 10
- SETVI phytotoxicity rating (0-100) ([13]; 500 g al/ha): 10
- crop damage rating RICE ([14]; 125 g ai/ha): 0
- crop damage rating RICE ([14]; 500 g ai/ha): 30
- crop damage rating CORN ([15]; 125 g ai/ha): 0
- crop damage rating CORN ([15]; 500 g ai/ha): 0
- phytotoxicity rating AMARE ([16]; 125 g ai/ha): 100
- phytotoxicity rating AMARE ([16]; 500 g ai/ha): 100
- phytotoxicity rating IPOHE ([17]; 125 g ai/ha): 0
- phytotoxicity rating IPOHE ([17]; 500 g ai/ha): 0
- phytotoxicity rating SORHA ([18]; 500 g ai/ha): 70
- phytotoxicity rating CASOB ([19]; 125 g ai/ha): 30
- phytotoxicity rating CASOB ([19]; 500 g ai/ha): 90
- phytotoxicity rating DIGSA ([20]; 125 g ai/ha): 30
- phytotoxicity rating DIGSA ([20]; 500 g ai/ha): 90
- phytotoxicity rating ABUTH ([21]; 125 g ai/ha): 100
- phytotoxicity rating ABUTH ([21]; 500 g ai/ha): 100
- phytotoxicity rating ECHCG ([22]; 125 g ai/ha): 10
- phytotoxicity rating ECHCG ([22]; 500 g ai/ha): 30
- phytotoxicity rating AMBEL ([23]; 125 g ai/ha): 20
- phytotoxicity rating AMBEL ([23]; 500 g ai/ha): 0
- phytotoxicity rating CHEAL ([24]; 125 g ai/ha): 70
- phytotoxicity rating CHEAL ([24]; 500 g ai/ha): 100
- phytotoxicity rating SETVI ([25]; 125 g ai/ha): 50
- phytotoxicity rating SETVI ([25]; 500 g ai/ha): 100
- crop damage rating SOY ([26]; 125 g ai/ha): 0
- crop damage rating SOY ([26]; 500 g ai/ha): 0
